Key:
[1] = system: α1 subunit of T-type calcium channels; experiment: Fluorescence based assay for T-type modulators (FLUO-4, gramicidin/NMDG, KCl pulse); assay type: cell-based; settings: transfected HEK 293 cells; various concentrations; FIG. 5; positive control
Experimental: Mammalian cell lines stably expressing α1 subunit of T-type calcium channels were constructed by transfecting α1 calcium channel subunit DNA into HEK 293 cells and selecting for antibiotic resistance. Briefly, a full-length T-type calcium channel α1 subunit was subcloned into an expression vector with a selectable marker, pcDNA3 (InvitroGen, San Diego, Calif.). The vector was transfected into HEK 293 cells by lipofection and the cells incubated for 16-20 hours. The cells were fed nonselective medium and incubated for an additional 24 hours, then trypsinized and plated at low density in selective medium supplemented with Geneticin (G418) at a concentration of between 600 to 800 μg/ml. […] After growing up each isolated colony to confluency to establish cell lines, the expression of T-type calcium channels was determined by Northern and Southern blotting. […]
Each well was then treated with fluorescence dye solution containing a mixture of 50 μg FLUO-4 AM (Molecular Probes, F-14201); 45.5 μl DMSO; 45.5 μl 20% Pluronic F-127 (Molecular Probes, P-6867) and 4 ml MKH buffer. […]
To each well, EB buffer was added also containing DMSO at a concentration equal to that of the test compounds for negative controls, the known blocker penfluoridol at 2.5 μM for positive control, and test compounds (diluted in DMSO) for experimental wells. […] Background fluorescence was read in all wells. […]

[2] = system: membrane potential of cells; experiment: Membrane potential of cells with gramicidin, NMDG substituted for external sodium (FIG. 3); assay type: cell-based; settings: 5 μg/ml gramicidin, absence of external sodium (NMDG)
Experimental: As shown, when 5 μg/ml gramicidin is added in the absence of external sodium, the membrane potential decreases to about −70 mV.

Compound | blocking calcium ion transport (fluorescence) [1] | membrane potential [2]
OC1(c2ccc(Cl)c(C(F)(F)F)c2)CCN(CCCC(c2ccc(F)cc2)c2ccc(F)cc2)CC1 [penfluoridol] | successful in blocking calcium ion transport | –
gramicidin | – | about −70 mV
